Tested on: COX-1 and COX-2
Experiment: human whole blood assay (Chan, et al., JPET 290:551-560, 1999) for COX-1 and COX-2 inhibition
Assay type: cell-based
Conditions: approximate COX-2 selectivity ratio = IC50 for inhibition of COX-1 divided by IC50 for inhibition of COX-2, human whole blood assay
Text: The ability of a compound to inhibit COX-1 and/or COX-2 may be characterized by reference to a wide variety of assays. […] Moreover, for purposes of this patent application a COX-2 selectivity ratio is defined by the IC50 for the inhibition of COX-1 divided by the IC50 for the inhibition of COX-2 as measured by the Chan, et al., human whole blood assay.

With `Cc1ccc(-c2cc(C(F)(F)F)nn2-c2ccc(S(N)(=O)=O)cc2)cc1` [Celecoxib] the “COX-1/COX-2 ratio of the IC50” value was 6.5.
`Cc1ccc(-c2ncc(Cl)cc2-c2ccc(S(C)(=O)=O)cc2)cn1` [Compound 13, 5-chloro-3-(4-(methylsulfonyl)phenyl)-2-(2-methyl-5-pyridinyl)pyridine] was tested, and the “COX-1/COX-2 ratio of the IC50” value was 80.
In the case of `COc1ccc2c(c1)c(CC(=O)O)c(C)n2C(=O)c1ccc(Cl)cc1` [Indomethacin], the “COX-1/COX-2 ratio of the IC50” value is reported as 0.4.
In the case of `Cc1cnc(NC(=O)C2=C(O)c3ccccc3S(=O)(=O)N2C)s1` [Meloxicam], the “COX-1/COX-2 ratio of the IC50” value is reported as 2.
In the case of `CCC(=O)NS(=O)(=O)c1ccc(-c2c(-c3ccccc3)noc2C)cc1` [Pericoxib, N-[[4-(5-methyl-3-phenylisoxazol-4-yl)phenyl]sulfonyl]propanamide], the “COX-1/COX-2 ratio of the IC50” value is reported as over 100.
`CS(=O)(=O)c1ccc(C2=C(c3ccccc3)C(=O)OC2)cc1` [Rofecoxib, 3-phenyl-4-(4-(methylsulfonyl)phenyl)-2-(5H)-furanone] was tested, and the “COX-1/COX-2 ratio of the IC50” value was 35.
